Target: RPE65 (bovine RPE microsomes as the enzyme source) (Bos taurus, UniProt Q28175)
Assay: in vitro retinoid isomerase activity assay
Format: biochemical

Sequence of UniProt Q28175 (Q28175 whole entry): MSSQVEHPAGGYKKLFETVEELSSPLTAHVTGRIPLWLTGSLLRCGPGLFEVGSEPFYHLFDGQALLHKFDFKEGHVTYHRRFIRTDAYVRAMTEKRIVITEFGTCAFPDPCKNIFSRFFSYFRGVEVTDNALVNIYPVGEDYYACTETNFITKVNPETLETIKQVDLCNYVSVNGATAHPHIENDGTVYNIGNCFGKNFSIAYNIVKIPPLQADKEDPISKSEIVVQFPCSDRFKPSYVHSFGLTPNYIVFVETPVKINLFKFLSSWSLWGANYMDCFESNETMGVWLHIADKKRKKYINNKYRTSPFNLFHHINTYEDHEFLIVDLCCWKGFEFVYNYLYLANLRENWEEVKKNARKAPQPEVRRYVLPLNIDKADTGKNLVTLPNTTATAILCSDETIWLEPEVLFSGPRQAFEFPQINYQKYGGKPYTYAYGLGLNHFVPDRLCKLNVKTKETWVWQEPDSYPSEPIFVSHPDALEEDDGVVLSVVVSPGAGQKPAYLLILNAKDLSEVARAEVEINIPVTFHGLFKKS

- IC50: 396 ± 58 nM
Compound: CC1=C(COc2cccc([C@H](O)CCN)c2)C(C)(C)CCC1 [MB-001, (R)-3-amino-1-(3-((2,6,6-trimethylcyclohex-1-en-1-yl)methoxy)phenyl)propan-1-ol]

From article PMC4433804 (Nature chemical biology, 2015)
